Columns and labels:
[1] = test system: polymorphonuclear cells; assay: Marker expression (immunohistochemistry) in polymorphonuclear blood cells with SP alone or with NK1 antagonists; format: cell-based, human; conditions: SP 1 μM; 48 h
From the text: Briefly, heparinized blood from healthy donors was centrifuged so as to separate the various components thereof. Red blood cells remained at the bottom of the tube. Above them was a small white layer composed of the white blood cells and above, on top of the tube, the blood plasma. The layer of white cells was distributed in a culture plate of 24 wells by adding in each the same concentration of blood plasma from the same donor, supplemented with 1% antibiotic-antimycotic (Invitrogen). In each well, approximately 1000 cells (PHF) skin from the dermis were further added, obtained as previously described in Example 2. […] After 48 hours of incubation, cells were collected and embedded in paraffin for expression analysis by immunohistochemical techniques (as described in Example 1).
The expression of TGF molecular markers (anti-TGF 2, SAB4502956) and NF-kB (anti-NF-kB, SAB4501992) using specific antibodies against them were analyzed. All antibodies used were rabbit polyclonal antibodies obtained from Sigma Aldrich and were used at a concentration of 1/1000. All experiments were carried out sixfold.

[2] = test system: fibroblasts (PHF) co-cultured with tumor cells of human gastric adenocarcinoma (23132/87); assay: Marker expression (IHC) in PHF co-cultured with 23132/87 tumor cells; format: cell-based; conditions: co-culture with 23132/87; SP 1 μM; 48 h;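 also: cultures grown in fresh plasma from a healthy human donor, values give the percentage of PHF fibroblasts positive for the marker, each experiment run in six replicates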
Method: All cultures were maintained 48 hours, following which the same cells were included in paraffin blocks for subsequent analysis of the expression of different markers by immunohistochemistry (see Example 1). The primary antibodies used to perform immunohistochemical assays and their concentration are detailed in Example 2. All experiments were carried out sixfold. Analyzed markers in fibroblast cells (stromal cells) were: TGF-α, TGF-β1, TGF-β2, TGF-β3, SPARC, MMP-3, MMP-7, MMP-9, MMP-11, MMP-13 and MMP-14.

[3] = test system: fibroblasts (PHF) co-cultured with human choriocarcinoma tumor cells (AC-1M32); assay: Marker expression (IHC) in PHF co-cultured with AC-1M32 tumor cells; format: cell-based; conditions: co-culture with AC-1M32; SP 1 μM; 48 h;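 also: Read-out is the percentage of PHF fibroblasts positive for each marker, with cells grown in fresh healthy-donor blood plasma, six replicates, reference being fibroblasts cultured alone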
Method: (§1) All cultures were maintained 48 hours, following which the same cells were included in paraffin blocks for subsequent analysis of the expression of different markers by immunohistochemistry (see Example 1). […] All experiments were carried out sixfold. Analyzed markers in fibroblast cells (stromal cells) were: TGF-α, TGF-β1, TGF-β2, TGF-β3, SPARC, MMP-3, MMP-7, MMP-9, MMP-11, MMP-13 and MMP-14.

[4] = test system: fibroblasts (PHF) co-cultured with tumor cells in human prostate carcinoma (22Rv1); assay: Marker expression (IHC) in PHF co-cultured with 22Rv1 tumor cells; format: cell-based; conditions: co-culture with 22Rv1; SP 1 μM; 48 h;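 also: cultures grown on fresh plasma from a healthy donor, each experiment run sixfold, values give the percentage of fibroblasts positive for the given marker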
Method: as §1

[5] = test system: co-cultures of tumor cells-endothelial cells (C-12210); assay: Inhibition/survival in co-cultures of primary human tumor cells and endothelial cells; format: cell-based; conditions: survival in reference to control, SP 1 μM
Method: To check that the interaction of primary tumor cells extracted directly from human with human vascular endothelial cells, promotes the survival of both cell types, co-cultures were performed microvascular endothelial cells from juvenile foreskins (PromoCell GmbH, Sickingenstraβe 63/65, D-69126 Heidelberg, Germany; reference C-12210) with tumor cells obtained directly from primary human tumors.
A total of 6 wells containing tumor cells were used as control for survival. Another 6 wells containing tumor cells were cultured with addition of endothelial cells.
Subsequently, cells were embedded in paraffin for analysis by immunohistochemistry. In order to identify the different cell types and quantity of them [They were labelled with primary antibodies specific for human endothelial cells (anti-CD31), carcinoma cells (Anti-Cytokeratins Spread Spectrum), glioma (Anti-glial fibrillary acidic protein), fibrosarcoma and malignant fibrous histiocytoma (Anti-Smooth Muscle Actin), Ewing sarcoma (Anti-CD99), Melanoma (Anti-HMB45), leukemias and lymphomas (Anti-Common Antigen Leucitario) and myeloma (anti CD 138). All antibodies are distributed by Dako and were used at the same concentration which is supplied (supplied pre-diluted—“ready to use”).

[6] = test system: leukocyte cells (mono and polymorphonuclear) in co-culture with cells isolated from primary human tumors; assay: Marker expression (IHC) in leukocytes co-cultured with primary human tumor cells (colon, pancreatic, lung carcinoma, glioma, melanoma); format: cell-based; conditions: SP 1 μM;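 also: tumor cells and leukocytes came from the same patients, co-culture contents were paraffin-embedded for immunohistochemistry with antibodies to TGF-β2 or NF-kB, leukocytes cultured alone served as control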
Method: To check that the interaction of the human primary tumor cells with cells of the immune/inflammatory (mono and polymorphonuclear leukocytes) cells, stimulates the secretion of substances of importance for survival and tumor progression, cultures were carried out using sets of immune cells/inflammatory (mono and polymorphonuclear leukocytes) with tumor cells obtained directly from primary human tumors of the same patients.
The same method described in Example 7 and 9 was used to obtain tumor cells from primary human tumors. Similarly cultured immune cells/inflammatory (mono and polymorphonuclear leukocytes) were used as control and secondly, cultured tumor cells isolated from patients in the presence of immune cells/inflammatory (mono and polymorphonuclear leukocytes).
Then, paraffin blocks were prepared with the contents of each of the groups mentioned previously for expression studies using immunohistochemistry. On this occasion, in order to identify the secretion of substances with importance for the survival and progression of tumor the following markers were analyzed: TGF-β2 (SAB4502956) and NF-kB (SAB4501992) using specific antibodies against them. All antibodies used were rabbit polyclonal antibodies obtained from Sigma Aldrich and were used at a concentration of 1/1000. Immunohistochemical techniques were performed and evaluated as described in previous examples.

[7] = Carcinoma of lung, (Small cell carcinoma in Table 36)
[8] = Carcinoma of lung, Non Small Cell Carcinoma in Table 36
[9] = Carcinoma of thyroid, (Follicular Carcinoma in Table 36)
[10] = Carcinoma of thyroid, (Papillary Carcinoma in Table 36)
[11] = co-culture with cells isolated from colon carcinoma
[12] = co-culture with cells isolated from glioma
[13] = co-culture with cells isolated from lung carcinoma
[14] = co-culture with cells isolated from melanoma
[15] = co-culture with cells isolated from pancreatic carcinoma

## CSCC[C@H](NC(=O)[C@H](CC(C)C)NC(=O)CNC(=O)[C@H](Cc1ccccc1)NC(=O)[C@H](Cc1ccccc1)NC(=O)[C@H](CCC(N)=O)NC(=O)[C@H](CCC(N)=O)NC(=O)[C@@H]1CCCN1C(=O)[C@H](CCCCN)NC(=O)[C@@H]1CCCN1C(=O)[C@@H](N)CCCNC(=N)N)C(N)=O [SP]
[1]
  polymorphonuclear cells expressing NF-kB: 17.5 ± 1.6%
  polymorphonuclear cells expressing TGF-β: 36.8 ± 2.1%
[2]
  PHF cells expressing MMP-3: 43.4 ± 1.7%
  PHF cells expressing MMP-7: 56.1 ± 2.8%
  PHF cells expressing MMP-9: 52.3 ± 1.4%
  PHF cells expressing MMP-11: 27.4 ± 2.8%
  PHF cells expressing MMP-13: 45 ± 3.5%
  PHF cells expressing MMP-14: 49.2 ± 4.5%
  PHF cells expressing SPARC: 47 ± 1.2%
  PHF cells expressing TGF-α: 32.4 ± 1.1%
  PHF cells expressing TGF-β1: 33.5 ± 1.1%
  PHF cells expressing TGF-β2: 40.5 ± 1.1%
  PHF cells expressing TGF-β3: 41 ± 1.56%
[3]
  PHF cells expressing MMP-3: 45.4 ± 2.7%
  PHF cells expressing MMP-7: 57.1 ± 3.8%
  PHF cells expressing MMP-9: 56.3 ± 2.4%
  PHF cells expressing MMP-11: 28.4 ± 2.8%
  PHF cells expressing MMP-13: 47 ± 3.7%
  PHF cells expressing MMP-14: 51.2 ± 4.5%
  PHF cells expressing SPARC: 46 ± 3.1%
  PHF cells expressing TGF-α: 41.4 ± 1.1%
  PHF cells expressing TGF-β1: 36.5 ± 2.1%
  PHF cells expressing TGF-β2: 53.5 ± 3.1%
  PHF cells expressing TGF-β3: 46 ± 3%
[4]
  PHF cells expressing MMP-3: 43.3 ± 2.7%
  PHF cells expressing MMP-7: 54.3 ± 4.8%
  PHF cells expressing MMP-9: 51.4 ± 2.4%
  PHF cells expressing MMP-11: 28.5 ± 3.8%
  PHF cells expressing MMP-13: 46 ± 2.5%
  PHF cells expressing MMP-14: 49 ± 3.5%
  PHF cells expressing SPARC: 48.1 ± 3.2%
  PHF cells expressing TGF-α: 41.4 ± 2.1%
  PHF cells expressing TGF-β1: 34.5 ± 3.1%
  PHF cells expressing TGF-β2: 42.5 ± 2.1%
  PHF cells expressing TGF-β3: 4.11 ± 3.6%
[5]; Carcinoma of Colon
  Endothelial cells co-cultured with tumor cells + SP: 243 ± 4%
  Tumor cells co-cultured with endothelial cells + SP: 253 ± 4%
[5]; Carcinoma of Pancreas
  Endothelial cells co-cultured with tumor cells + SP: 287 ± 3%
  Tumor cells co-cultured with endothelial cells + SP: 252 ± 4%
[5]; Carcinoma of breast
  Endothelial cells co-cultured with tumor cells + SP: 281 ± 4%
  Tumor cells co-cultured with endothelial cells + SP: 253 ± 5%
[5]; Carcinoma of cervix
  Endothelial cells co-cultured with tumor cells + SP: 292 ± 4%
  Tumor cells co-cultured with endothelial cells + SP: 260 ± 4%
[5]; Carcinoma of endometrial
  Endothelial cells co-cultured with tumor cells + SP: 283 ± 5%
  Tumor cells co-cultured with endothelial cells + SP: 252 ± 3%
[5]; [7]
  Endothelial cells co-cultured with tumor cells + SP: 294 ± 2%
  Tumor cells co-cultured with endothelial cells + SP: 264 ± 3%
[5]; [8]
  Endothelial cells co-cultured with tumor cells + SP: 274 ± 5%
  Tumor cells co-cultured with endothelial cells + SP: 245 ± 6%
[5]; Carcinoma of ovarian
  Endothelial cells co-cultured with tumor cells + SP: 282 ± 4%
  Tumor cells co-cultured with endothelial cells + SP: 254 ± 4%
[5]; Carcinoma of prostate
  Endothelial cells co-cultured with tumor cells + SP: 270 ± 4%
  Tumor cells co-cultured with endothelial cells + SP: 269 ± 1%
[5]; Carcinoma of stomach
  Endothelial cells co-cultured with tumor cells + SP: 251 ± 3%
  Tumor cells co-cultured with endothelial cells + SP: 260 ± 4%
[5]; [9]
  Endothelial cells co-cultured with tumor cells + SP: 260 ± 5%
  Tumor cells co-cultured with endothelial cells + SP: 240 ± 6%
[5]; [10]
  Endothelial cells co-cultured with tumor cells + SP: 265 ± 2%
  Tumor cells co-cultured with endothelial cells + SP: 230 ± 4%
[5]; Fibrosarcoma
  Endothelial cells co-cultured with tumor cells + SP: 249 ± 5%
  Tumor cells co-cultured with endothelial cells + SP: 257 ± 3%
[5]; Glioma
  Endothelial cells co-cultured with tumor cells + SP: 238 ± 6%
  Tumor cells co-cultured with endothelial cells + SP: 247 ± 5%
[5]; Hodgkin's Lymphoma
  Endothelial cells co-cultured with tumor cells + SP: 248 ± 5%
  Tumor cells co-cultured with endothelial cells + SP: 265 ± 4%
[5]; Leukemia B
  Endothelial cells co-cultured with tumor cells + SP: 278 ± 4%
  Tumor cells co-cultured with endothelial cells + SP: 265 ± 6%
[5]; Leukemia T
  Endothelial cells co-cultured with tumor cells + SP: 276 ± 4%
  Tumor cells co-cultured with endothelial cells + SP: 256 ± 6%
[5]; Malignant fibrous histiocytoma
  Endothelial cells co-cultured with tumor cells + SP: 246 ± 4%
  Tumor cells co-cultured with endothelial cells + SP: 245 ± 3%
[5]; Melanoma
  Endothelial cells co-cultured with tumor cells + SP: 267 ± 4%
  Tumor cells co-cultured with endothelial cells + SP: 245 ± 2%
[5]; Myeloma
  Endothelial cells co-cultured with tumor cells + SP: 267 ± 2%
  Tumor cells co-cultured with endothelial cells + SP: 232 ± 3%
[5]; Neuroblastoma
  Endothelial cells co-cultured with tumor cells + SP: 258 ± 3%
  Tumor cells co-cultured with endothelial cells + SP: 256 ± 5%
[5]; Non-Hodgkin's Lymphoma B
  Endothelial cells co-cultured with tumor cells + SP: 254 ± 7%
  Tumor cells co-cultured with endothelial cells + SP: 267 ± 5%
[5]; Non-Hodgkin's Lymphoma T
  Endothelial cells co-cultured with tumor cells + SP: 256 ± 4%
  Tumor cells co-cultured with endothelial cells + SP: 276 ± 4%
[5]; Renal carcinoma
  Endothelial cells co-cultured with tumor cells + SP: 282 ± 4%
  Tumor cells co-cultured with endothelial cells + SP: 260 ± 4%
[5]; Sarcoma of Ewing
  Endothelial cells co-cultured with tumor cells + SP: 234 ± 5%
  Tumor cells co-cultured with endothelial cells + SP: 236 ± 4%
[6]; [11]
  Percentage of mononuclear leukocytes cells which expressed NF-kB: 47.5 ± 4.6%
  Percentage of mononuclear leukocytes cells which expressed TGF-β: 36.5 ± 3.5%
  Percentage of polymorphonuclear leukocytes cells which expressed NF-kB: 36.6 ± 4.7%
  Percentage of polymorphonuclear leukocytes cells which expressed TGF-β: 45.8 ± 3.5%
[6]; [12]
  Percentage of mononuclear leukocytes cells expressing NF-kB: 41.6 ± 4.1%
  Percentage of mononuclear leukocytes cells expressing TGF-β: 41.7 ± 3.4%
  Percentage of polymorphonuclear leukocytes cells expressing NF-kB: 39.4 ± 4.2%
  Percentage of polymorphonuclear leukocytes cells expressing TGF-β: 39.7 ± 3.3%
[6]; [13]
  Percentage of mononuclear leukocytes cells which expressed NF-kB: 41.6 ± 4.2%
  Percentage of mononuclear leukocytes cells which expressed TGF-β: 42.7 ± 3.3%
  Percentage of polymorphonuclear leukocytes cells which expressed NF-kB: 35.5 ± 4.2%
  Percentage of polymorphonuclear leukocytes cells which expressed TGF-β: 38.7 ± 3.3%
[6]; [14]
  Percentage of mononuclear leukocytes cells which expressed NF-kB: 51.7 ± 5.3%
  Percentage of mononuclear leukocytes cells which expressed TGF-β: 49.6 ± 4.2%
  Percentage of polymorphonuclear leukocytes cells which expressed NF-kB: 56.6 ± 4.6%
  Percentage of polymorphonuclear leukocytes cells which expressed TGF-β: 54.5 ± 3.5%
[6]; [15]
  Percentage of mononuclear leukocytes cells which expressed TGF-β: 39.5 ± 4.5%
  Percentage of polymorphonuclear leukocytes cells which expressed NF-kB: 35.4 ± 4.2%
  Percentage of polymorphonuclear leukocytes cells which expressed TGF-β: 36.5 ± 3.1%

Reference: patent US20180071317A1, “USE OF AGENTS THAT ALTER THE PERITUMORAL ENVIRONMENT FOR THE TREATMENT OF CANCER” (SERVICIO ANDALUZ DE SALUD, priority 2011, published 2018)
